Assay results reported in US12185723B2, “Herbicidally active 3-phenylisoxazoline-5-carboxamides of s-containing cyclopentenylcarboxylic esters” (Bayer Aktiengesellschaft, priority 2019, dated 2025).

Key:
Format in all cases: in vivo
Alopecurus myosuroides = assay: Post-emergence herbicidal action against ALOMY; conditions: visual rating about 3 weeks after treatment
How it was run: (§1)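 Post-emergence application onto green parts at the one-leaf stage, 2 to 3 weeks after sowing in sandy loam. Spray carried 0.5% additive at a water rate of 600 l/ha. Percent activity assessed by eye at about 3 weeks, where 100% means plants died and 0% matches controls.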

Avena fatua = assay: Post-emergence herbicidal action against AVEFA; conditions: visual rating about 3 weeks after treatment
How it was run: as §1

DIGSA = assay: Post-emergence herbicidal action against DIGSA; conditions: visual rating about 3 weeks after treatment
How it was run: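 Greenhouse-grown plants sprayed at one-leaf stage (2–3 weeks after sowing) with WP or EC formulations as aqueous suspension/emulsion plus 0.5% additive, 600 l/ha water. Activity rated visually about 3 weeks later versus untreated controls, 100% = plants dead, 0% = like controls.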

Echinochloa crus-galli = assay: Post-emergence herbicidal action against ECHCG; conditions: visual rating about 3 weeks after treatment
How it was run: as §1

Lolium rigidum = assay: Post-emergence herbicidal action against LOLRI; conditions: visual rating about 3 weeks after treatment
How it was run: as §1

Setaria viridis = assay: Post-emergence herbicidal action against SETVI; conditions: visual rating about 3 weeks after treatment
How it was run: as §1

Abutilon theophrasti = assay: Post-emergence herbicidal action against ABUTH; conditions: 80 g a.i./ha, visual rating about 3 weeks after treatment
How it was run: as §1

Amaranthus retroflexus = assay: Post-emergence herbicidal action against AMARE
How it was run: as §1

Matricaria inodora = assay: Post-emergence herbicidal action against MATIN; conditions: 80 g a.i./ha, visual rating about 3 weeks after treatment
How it was run: as §1

Pharbitis purpurea = assay: Post-emergence herbicidal action against PHBPU; conditions: 80 g a.i./ha
How it was run: as §1

Polygonum convolvulus = assay: Post-emergence herbicidal action against POLCO
How it was run: as §1

Stellaria media = assay: Post-emergence herbicidal action against STEME; conditions: 80 g a.i./ha
How it was run: as §1

Viola tricolor = assay: Post-emergence herbicidal action against VIOTR; conditions: 80 g a.i./ha
How it was run: as §1

Veronica persica = assay: Post-emergence herbicidal action against VERPE
How it was run: as §1

Hordeum murinum = assay: Post-emergence herbicidal action against HORMU
How it was run: as §1

CSCCOC(=O)C1C=CC(NC(=O)C2(C(F)(F)F)CC(c3cccc(C#N)c3)=NO2)C1 (mixture of isomers) [Example I-44]
Herbicidal action against [%] ALOMY (Alopecurus myosuroides; 20 g a.i./ha): 90%
Herbicidal action against [%] ALOMY (Alopecurus myosuroides; 80 g a.i./ha): 90%
Herbicidal action against [%] AVEFA (Avena fatua; 20 g a.i./ha): 80%
Herbicidal action against [%] AVEFA (Avena fatua; 80 g a.i./ha): 90%
Herbicidal action against [%] DIGSA (DIGSA; 20 g a.i./ha): 90%
Herbicidal action against [%] DIGSA (DIGSA; 80 g a.i./ha): 90%
Herbicidal action against [%] ECHCG (Echinochloa crus-galli; 20 g a.i./ha): 80%
Herbicidal action against [%] ECHCG (Echinochloa crus-galli; 80 g a.i./ha): 80%
Herbicidal action against [%] LOLRI (Lolium rigidum; 20 g a.i./ha): 90%
Herbicidal action against [%] LOLRI (Lolium rigidum; 80 g a.i./ha): 90%
Herbicidal action against [%] SETVI (Setaria viridis; 20 g a.i./ha): 80%
Herbicidal action against [%] SETVI (Setaria viridis; 80 g a.i./ha): 90%
Herbicidal action against [%] ABUTH (Abutilon theophrasti): 80%
Herbicidal action against [%] AMARE (Amaranthus retroflexus; 20 g a.i./ha): 80%
Herbicidal action against [%] AMARE (Amaranthus retroflexus; 80 g a.i./ha, visual rating about 3 weeks after treatment): 80%
Herbicidal action against [%] MATIN (Matricaria inodora): 80%
Herbicidal action against [%] PHBPU (Pharbitis purpurea): 80%
Herbicidal action against [%] POLCO (Polygonum convolvulus; 20 g a.i./ha): 80%
Herbicidal action against [%] POLCO (Polygonum convolvulus; 80 g a.i./ha): 90%
Herbicidal action against [%] STEME (Stellaria media): 90%
Herbicidal action against [%] VIOTR (Viola tricolor): 90%
Herbicidal action against [%] VERPE (Veronica persica; 20 g a.i./ha): 90%
Herbicidal action against [%] VERPE (Veronica persica; 80 g a.i./ha): 90%
Herbicidal action against [%] HORMU (Hordeum murinum; 20 g a.i./ha): 80%
Herbicidal action against [%] HORMU (Hordeum murinum; 80 g a.i./ha): 80%
